Data: article PMC7311425, “DREAM-in-CDM Approach and Identification of a New Generation of Anti-inflammatory Drugs Targeting mPGES-1” (Scientific Reports, 2020)
Where “and” joins values, the source holds several entries; their conditions need not be identical. Equal values may be shown once. Entries after “also recorded” stand apart in the source; their conditions may differ. Read-outs that look alike come from different tables or passages of the source. One block for each compound: values may come before it.

Experiments:
[1] = biological target: T1, human mPGES-1 (Homo sapiens, UniProt O14684); test: in vitro inhibitory activity against human mPGES-1 (PGE2 ELISA assay); type: biochemical; conditions: for inhibition at 10 µM: read-out: Inhibition (%) at 10 µM; for IC50: human mPGES-1
T1 construct: made in house
T1 sequence (O14684 1-152): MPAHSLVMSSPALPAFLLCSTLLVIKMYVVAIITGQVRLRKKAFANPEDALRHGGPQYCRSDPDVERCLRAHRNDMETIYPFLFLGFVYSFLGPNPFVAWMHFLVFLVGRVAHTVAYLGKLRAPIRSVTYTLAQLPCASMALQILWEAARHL
Procedure: The above computational predictions were followed by in vitro activity assays for their actual inhibitory activity against human mPGES-1 using an ELISA assay described in our previous reports[32]–[34]. […] Specifically, 15 FDA-approved drugs (see Fig. S1 of the Supporting Information for the molecular structures) were assayed for their inhibitory activity against human mPGES-1.
(§1) The protocol for the protein preparation and in vitro activity assays were the same as described previously[51]–[54]. The enzyme activity assays were performed on ice in 1.5 ml microfuge tubes by using the expressed human or mouse mPGES-1. The reaction mixture contained: 0.2 M Na2HPO4/NaH2PO4, pH 7.2, 10 µL; 0.1 M GSH, 2.5 µL; diluted microsomal enzyme (80 µg/mL), 1 µL; PGH2 (0.31 mM in DMF), 5 µL; 1 µL inhibitor; and H2O in a final reaction volume of 100 µL. PGH2 was stored in dry ice and used to initiate the reaction. Compounds were incubated with the enzyme for 15 min at room temperature before the addition of cold PGH2 ([…]) to initiate the enzyme reaction. After 30 s, 10 µL of SnCl2 (40 mg/mL) in ethanol was added to stop the reaction. The non-enzymatic conversion of PGH2 to PGE2 was performed in the same buffer devoid of enzyme. The reaction mixture was placed on ice until PGE2 production was determined by the PGE2 enzyme immunoassay as described earlier. IC50 values of the inhibitors were calculated by using the GraphPad Prism 7.

[2] = system: mixed COX-1 and COX-2 (COX-1/2); test: COX (ovine/human) inhibitor screening assay, mixed COX-1 and COX-2; type: biochemical; conditions: 100 µM; equal amounts of COX-1 and COX-2
Text: We used a mixture of equal amounts of purified COX-1 and COX-2 proteins and followed the protocol recommended by the vendor.

[3] = biological target: T1, human mPGES-1; test: mPGES-1 enzyme activity at various GSH concentrations, Lineweaver-Burk plots; type: biochemical
Procedure: as §1

[4] = system: air-pouch PGE2 level; test: mouse air-pouch model of inflammation (carrageenan), air-pouch PGE2 by ELISA; type: in vivo
Procedure: The air-pouch fluid collected from mice were analyzed by ELISA assay for the PGE2 concentrations. GraphPad Prism 7 software (GraphPad Software, La Jolla, CA) was used to perform the one-way analysis of variance (ANOVA) with post hoc tests.
All the animal experiments were conducted in our animal laboratories in the University of Kentucky’s Division of Laboratory Animal Resources (DLAR) facility (PHS assurance number A3336-01; USDA number 61-R-0002; AAALAC, Intl. Unit # 13) following the guidelines and regulations of the AAALAC and National Institutes of Health (NIH). The animal procedure used in this project was approved by the University of Kentucky’s Institutional Animal Care and Use Committee (IACUC). The air-pouch model of inflammation[23],[55] is widely used for determining the in vivo effectiveness of inhibitors of prostaglandin synthesis. Air pouches were produced by duplicate injections of 3 mL of sterile air under the skin on the back of mice. […] The air-pouch fluid samples were analyzed for PGE2 by the same ELISA method used in the in vitro enzyme activity assay mentioned above.
GraphPad Prism 7 software (GraphPad Software, La Jolla, CA) was used to perform the one-way analysis of variance (ANOVA) with post hoc testing, allowing us to examine the significance of the difference in the in vivo activity data between each pair of dose conditions. p < 0.05 was considered statistically significant.

[5] = predicted Cmax in human organs from rat organ/plasma ratios; type: in vivo; conditions: 50 mg, from rat organ/plasma ratios [56]
Text: In addition, the reported ratios of Cmax values in various organs of rat to Cmax in rat plasma, along with the Cmax values in human plasma, were used to predict the Cmax values in the corresponding organs of human corresponding to the Cmax values in human plasma.

[6] = cited from earlier work
[7] = human, read-out: Cmax (µM) in plasma, cited from earlier work
[8] = mouse, in vivo; cited from earlier work

inhibition at 10 µM ([1]; 10 µM, single concentration): 52% | IC50 [1]: 10.2 ± 2.5 µM
Structure (SMILES): Cc1ccccc1C(=O)Nc1ccc(C(=O)N2CCCC(O)c3cc(Cl)ccc32)c(C)c1 (stereo not drawn) [Tolvaptan]

inhibition at 10 µM ([1]; 10 µM, single concentration): 54% | IC50 [1]: 9 ± 2.3 µM
Structure (SMILES): CCOC(=O)[C@H](CCc1ccccc1)N[C@@H](C)C(=O)N1[C@H](C(=O)O)C[C@H]2CCCC[C@@H]21 [Trandolapril]

Structure (SMILES): COc1cc(C)c(/C=C/C(C)=C/C=C/C(C)=C/C(=O)O)c(C)c1C [Acitretin]
inhibition at 10 µM ([1]; 10 µM, single concentration): 83% | IC50 [1]: 3.5 ± 1.6 µM

inhibition at 10 µM ([1]; 10 µM, single concentration): 4%
Structure (SMILES): CCCCC[C@H](O)/C=C/[C@H]1[C@H](O)CC(=O)[C@@H]1C/C=C\CCCC(=O)O [Dinoprostone]

inhibition at 10 µM ([1]; 10 µM, single concentration): 11%
Structure (SMILES): CCCCC[C@H](O)/C=C/[C@H]1[C@H](O)CC(=O)[C@@H]1CCCCCCC(=O)O [Alprostadil]

inhibition at 10 µM ([1]; 10 µM, single concentration): 47% | IC50 [1]: 29.7 ± 6.3 µM
Structure (SMILES): COCC1=C(C(=O)O)N2C(=O)[C@@H](NC(=O)/C(=N\OC)c3csc(N)n3)[C@H]2SC1 [Cefpodoxime]

inhibition at 10 µM ([1]; 10 µM, single concentration): 36%
Structure (SMILES): OCCN(CCO)c1nc(N2CCCCC2)c2nc(N(CCO)CCO)nc(N3CCCCC3)c2n1 [Dipyridamole]

Structure (SMILES): CS(=O)(=O)CCNCc1ccc(-c2ccc3ncnc(Nc4ccc(OCc5cccc(F)c5)c(Cl)c4)c3c2)o1 [Lapatinib]
inhibition at 10 µM ([1]; 10 µM, single concentration): 99% | IC50 [1]: 0.8 µM and ~0.8 µM | inhibition of COX-1/2 [2]: did not significantly inhibit | effect on Vmax ([3]; 1 µM lapatinib): did not significantly change | mode of inhibition with respect to GSH ([3]; 1 µM lapatinib, GSH at different concentrations): competes with co-factor GSH; also recorded: GSH-competitive inhibitor | y-intercept of Lineweaver-Burk plot (1/Vmax) ([3]; in the presence of 1 µM lapatinib (0.15 ± 0.02 in the absence)): 0.18 ± 0.02 | effect on air-pouch PGE2 level ([4]; carrageenan-treated mice, PO, 24 hours): significantly and dose-dependently decreased | effectiveness in comparison with celecoxib 50 mg/kg (PO) ([4]; lapatinib 50 mg/kg PO): less effective | difference in in vivo potency versus 50 mg/kg celecoxib (PO) ([4]; lapatinib 100 mg/kg PO): no significant difference | Cmax ([5]; read-out: Predicted Cmax (µM) Kidney): ~1.3 µM | Cmax ([5]; read-out: Predicted Cmax (µM) Lung): ~2 µM | dose-limiting toxicity (DLT) ([6]; Phase I dose-escalation, up to 7000 mg per day in twice-daily dosing): no dose-limiting toxicity | adverse effects in phase I clinical trials ([6]; non-cancer patients): did not cause any serious adverse effects | Cmax ([7]; 10 mg, GW572016 ditosylate monohydrate oral suspension, ref Bence et al.[38]): 0.019 µM | Cmax ([7]; 25 mg, GW572016 ditosylate monohydrate oral suspension, ref Bence et al.[38]): 0.04 µM | Cmax ([7]; 50 mg, GW572016 ditosylate monohydrate oral suspension, ref Bence et al.[38]): 0.124 µM | Cmax ([7]; 100 mg, GW572016 ditosylate monohydrate oral suspension, ref Bence et al.[38]): 0.213 µM | Cmax ([7]; 175 mg, GW572016 ditosylate monohydrate oral suspension, ref Bence et al.[38]): 0.38 µM | Cmax ([7]; 250 mg, GW572016 ditosylate monohydrate oral suspension, ref Bence et al.[38]): 0.546 µM | Cmax ([7]; 500 mg, 100-mg and 250-mg tablets, daily oral, ref clinical trial EGF10004): 1.76 µM | Cmax ([7]; 650 mg, 100-mg and 250-mg tablets, daily oral, ref clinical trial EGF10004): 2.24 µM | Cmax ([7]; 900 mg, 100-mg and 250-mg tablets, daily oral, ref clinical trial EGF10004): 2.93 µM | Cmax ([7]; 1000 mg, 100-mg and 250-mg tablets, daily oral, ref clinical trial EGF10004): 3.18 µM | Cmax ([7]; 1250 mg orally once daily, ref clinical trial NCT00477464): 6.06 µM | Cmax ([7]; 1500 mg, 6 pills at 250 mg once oral daily, average of 36 data points from 6 subgroups, ref clinical trial NCT00486954 and NCT01138046): 8.6 µM

inhibition at 10 µM ([1]; 10 µM, single concentration): 36%
Structure (SMILES): CC1(C)S[C@@H]2[C@H](NC(=O)COc3ccccc3)C(=O)N2[C@H]1C(=O)O [Penicillin V Potassium]

Structure (SMILES): Cc1ccc(-c2cc(C(F)(F)F)nn2-c2ccc(S(N)(=O)=O)cc2)cc1 [celecoxib]
toxicity in mice [8]: significant toxicity

inhibition at 10 µM ([1]; 10 µM, single concentration): 44%
Structure (SMILES): C[C@]12C=CC(=O)C=C1CC[C@@H]1[C@@H]2[C@@H](O)C[C@@]2(C)[C@H]1CC[C@]2(O)C(=O)CO [Prednisolone]

Structure (SMILES): C[C@]12CC[C@@H]3c4ccc(OC(=O)N(CCCl)CCCl)cc4CC[C@H]3[C@@H]1CC[C@@H]2OP(=O)(O)O [Estramustine Phosphate]
inhibition at 10 µM [1]: 36%

inhibition at 10 µM ([1]; 10 µM, single concentration): 19%
Structure (SMILES): CC(C)(C)C(=O)OCOP(=O)(COCCn1cnc2c(N)ncnc21)OCOC(=O)C(C)(C)C [Adefovir Dipivoxil]

inhibition at 10 µM ([1]; 10 µM, single concentration): 68% | IC50 [1]: 3 ± 1.1 µM
Structure (SMILES): C=C1/C(=C\C=C2/CCC[C@]3(C)[C@@H]([C@H](C)/C=C/[C@@H](O)C4CC4)CC[C@@H]23)C[C@@H](O)C[C@@H]1O [Calcipotriene]

inhibition at 10 µM ([1]; 10 µM, single concentration): 22%
Structure (SMILES): COc1cc2nc(N(C)CCCNC(=O)C3CCCO3)nc(N)c2cc1OC (stereo not drawn) [Alfuzosin]

inhibition at 10 µM ([1]; 10 µM, single concentration): 21%
Structure (SMILES): COc1cc2nc(N3CCN(C(=O)C4COc5ccccc5O4)CC3)nc(N)c2cc1OC (stereo not drawn) [Doxazosin]
